Source: patent US3953474A

How the values were obtained:
E. tenella = assay: Efficacy against E. tenella in broiler cockerels (Table I); assay type: in vivo, Eimeria tenella; conditions: for Percent Mortality: due to coccidiosis; for Percent Weight Gain: normal controls = 100; for Average Cecal Lesion Score: scale 0-4
Experimental: (§1) The anticoccidial effects of the A204I derivatives are illustrated by the effects of various of the compounds in controlling single-species infections of Eimeria tenella, Eimeria necatrix, Eimeria mivati, and Eimeria brunetti and a multiple-species infection of Eimeria maxima and Eimeria tenella in chickens.
(§2) For these studies, groups of five 7-day-old chicks were fed a mash diet containing therein a uniformly dispersed A204I derivative. After having been on this ration for 48 hours, each bird was inoculated with sporulated oocysts of the particular species of Eimeria being tested.
(§3) Some of these groups were also inoculated with Eimeria after 48 hours and served as infected controls. Other of these groups were not inoculated with Eimeria and served as normal controls. The results of treatment were evaluated 7 days after inoculation. The birds were weighed, sacrificed and examined for evidence of coccidial lesions. Coccidial involvement was expressed on an arbitrary scale, increasing from zero (no evidence of coccidiosis) to four (maximum involvement for the Eimeria sp. tested). The percent reduction in lesion score is calculated by subtracting the average lesion score of the treated group from the average lesion score of the infected control group, dividing this difference by the average lesion score of the infected control group, and multiplying the quotient by 100.
(§4) The percent weight gain is calculated using the weight gain of normal controls as 100 percent.

[1] = Acute oral toxicity in mice; conditions: mouse, in vivo
Excerpt: The acute toxicities in mice of various of the A204I derivatives, also administered orally and expressed as LD50, are as follows: […]

[2] = Rat feeding studies (Table VII); assay type: in vivo, rats; conditions: 14 days, mean
Experimental: For this test, five rats of each sex were studied for 14 days at each treatment level. The mean changes in body weight and the mean amounts of food ingested were calculated for each group.

E. maxima and E. tenella = assay: Efficacy against a mixed infection of E. maxima and E. tenella in broiler cockerels (Table V); assay type: in vivo, Eimeria maxima and Eimeria tenella; conditions: for Percent Mortality: due to coccidiosis; for Percent Weight Gain: normal controls = 100; for Cecal Lesions, Average Lesion Score / Intestinal Lesions, Average Lesion Score: scale 0-4; for Intestinal Lesions, Percent Reduction Lesion Score / Cecal Lesions, Percent Reduction Lesion Score: vs infected controls
Experimental: as §1, §2, §3, §4

pKa' determination = conditions: 66% aqueous dimethylformamide
E. necatrix = assay: Efficacy against E. necatrix in broiler cockerels (Table II); assay type: in vivo, Eimeria necatrix; conditions: for Percent Mortality: due to coccidiosis; for Percent Weight Gain: normal controls = 100; for Average Intestinal Lesion Score: scale 0-4; for Percent Reduction Lesion Score: vs infected controls
Experimental: as §1, §2, §3, §4

E. brunetti = assay: Efficacy against E. brunetti in broiler cockerels (Table IV); assay type: in vivo, Eimeria brunetti; conditions: for Percent Mortality: due to coccidiosis; for Percent Weight Gain: normal controls = 100; for Average Lesion Score: scale 0-4; for Percent Reduction Lesion Score: vs infected controls
Experimental: as §1, §2, §3, §4

E. mivati = assay: Efficacy against E. mivati in broiler cockerels (Table III); assay type: in vivo, Eimeria mivati; conditions: for Percent Mortality: due to coccidiosis; for Percent Weight Gain: normal controls = 100; for Average Intestinal Lesion Score: scale 0-4; for Percent Reduction Lesion Score: vs infected controls
Experimental: as §1, §2, §3, §4

[3] = second experiment, .0025 percent in diet
[4] = second experiment, .0025 percent in diet, vs infected control
[5] = first experiment, .00165 percent in diet
[6] = first experiment, .0066 percent in diet
[7] = second experiment, .005 percent in diet

In the case of `COCCOC1(C(C)C(=O)O)OC(CC2CC(OC)C(C)C3(O2)OC(C)(C2CCC(C4CCC(C5OC(C)(O)C(C)C(OC)C5C)O4)O2)C(OC)C3C)C(C)(OC)C(OC2CCC(OC)C(C)O2)C1C` (stereo not shown) [A204I 2-methoxyethyl ether derivative], the “Percent Mortality” value (E. tenella; [3]) is reported as 0%, the “Percent Weight Gain” value (E. tenella; [3]) is reported as 90% and the “Average Cecal Lesion Score” value (E. tenella; [3]) is reported as 2.9. The “Percent Reduction Lesion Score” value (E. tenella; [4]) was under 40%.

In the case of `COC1CCC(OC2C(C)C(OC(C)C)(C(C)C(=O)O)OC(CC3CC(OC)C(C)C4(O3)OC(C)(C3CCC(C5CCC(C6OC(C)(O)C(C)C(OC)C6C)O5)O3)C(OC)C4C)C2(C)OC)OC1C` (stereo not shown) [A204I isopropyl ether, A204I isopropyl ether derivative], the LD50 [1] is reported as 20 to 36 mg/kg, the “Percent Mortality” value (E. tenella; [3]) is reported as 0% and the “Percent Weight Gain” value (E. tenella; [3]) is reported as 95%. For the same compound, the “Average Cecal Lesion Score” value (E. tenella; [3]) was 2.3 and the “Percent Reduction Lesion Score” value (E. tenella; [4]) was under 40%.

In the case of `CCCOC1(C(C)C(=O)O)OC(CC2CC(OC)C(C)C3(O2)OC(C)(C2CCC(C4CCC(C5OC(C)(O)C(C)C(OC)C5C)O4)O2)C(OC)C3C)C(C)(OC)C(OC2CCC(OC)C(C)O2)C1C` (stereo not shown) [A204I n-propyl ether, A204I n-propyl ether derivative], the “Body Weight Change” value ([2]; female, 5 ppm) is reported as “+34.0 g”, the Food ingested ([2]; female, 5 ppm) is reported as 224 g and the “Body Weight Change” value ([2]; female, 10 ppm) is reported as “+36.0 g”. The Food ingested ([2]; female, 10 ppm) was 218 g, the “Body Weight Change” value ([2]; female, 20 ppm) was “+31.6 g” and the Food ingested ([2]; female, 20 ppm) was 229 g. The “Body Weight Change” value ([2]; male, 5 ppm) was “+77.8 g”, the Food ingested ([2]; male, 5 ppm) was 281 g and the “Body Weight Change” value ([2]; male, 10 ppm) was “+45.2 g”. For the same compound, the Food ingested ([2]; male, 10 ppm) was 221 g, the “Body Weight Change” value ([2]; male, 20 ppm) was “+66.6 g” and the Food ingested ([2]; male, 20 ppm) was 288 g. The “Percent Mortality” value (E. maxima and E. tenella; .0025 percent in diet) was 0%, the “Percent Weight Gain” value (E. maxima and E. tenella; .0025 percent in diet) was 94% and the “Cecal Lesions, Average Lesion Score” value (E. maxima and E. tenella; .0025 percent in diet) was 2.67. For the same compound, the “Intestinal Lesions, Average Lesion Score” value (E. maxima and E. tenella; .0025 percent in diet) was 0.13, the “Intestinal Lesions, Percent Reduction Lesion Score” value (E. maxima and E. tenella; .0025 percent in diet) was 84% and the “Percent Mortality” value (E. maxima and E. tenella; .005 percent in diet) was 0%. For the same compound, the “Percent Weight Gain” value (E. maxima and E. tenella; .005 percent in diet) was 99%, the “Cecal Lesions, Average Lesion Score” value (E. maxima and E. tenella; .005 percent in diet) was 0.07 and the “Intestinal Lesions, Average Lesion Score” value (E. maxima and E. tenella; .005 percent in diet) was 0.07. For the same compound, the “Cecal Lesions, Percent Reduction Lesion Score” value (E. maxima and E. tenella; .005 percent in diet) was 98%, the “Intestinal Lesions, Percent Reduction Lesion Score” value (E. maxima and E. tenella; .005 percent in diet) was 91% and the “Percent Mortality” value (E. maxima and E. tenella; .01 percent in diet) was 0%. For the same compound, the “Percent Weight Gain” value (E. maxima and E. tenella; .01 percent in diet) was 98%, the “Cecal Lesions, Average Lesion Score” value (E. maxima and E. tenella; .01 percent in diet) was 0 and the “Intestinal Lesions, Average Lesion Score” value (E. maxima and E. tenella; .01 percent in diet) was 0. The “Cecal Lesions, Percent Reduction Lesion Score” value (E. maxima and E. tenella; .01 percent in diet) was 100%, the “Intestinal Lesions, Percent Reduction Lesion Score” value (E. maxima and E. tenella; .01 percent in diet) was 100% and the pKa (pKa' determination) was 7.8. The “Percent Mortality” value (E. necatrix; .0025 percent in diet) was 0%, the “Percent Weight Gain” value (E. necatrix; .0025 percent in diet) was 63% and the “Average Intestinal Lesion Score” value (E. necatrix; .0025 percent in diet) was 1.6. The “Percent Reduction Lesion Score” value (E. necatrix; .0025 percent in diet) was 59%, the “Percent Mortality” value (E. necatrix; .005 percent in diet) was 6.7% and the “Percent Weight Gain” value (E. necatrix; .005 percent in diet) was 92%. For the same compound, the “Average Intestinal Lesion Score” value (E. necatrix; .005 percent in diet) was 0.2, the “Percent Reduction Lesion Score” value (E. necatrix; .005 percent in diet) was 95% and the “Percent Mortality” value (E. necatrix; .01 percent in diet) was 0%. The “Percent Weight Gain” value (E. necatrix; .01 percent in diet) was 89%, the “Average Intestinal Lesion Score” value (E. necatrix; .01 percent in diet) was 0 and the “Percent Reduction Lesion Score” value (E. necatrix; .01 percent in diet) was 100%. For the same compound, the LD50 [1] was 38 ± 6 mg/kg, the “Percent Mortality” value (E. brunetti; .0025 percent in diet) was 0% and the “Percent Weight Gain” value (E. brunetti; .0025 percent in diet) was 95%. The “Average Lesion Score” value (E. brunetti; .0025 percent in diet) was 0.80, the “Percent Mortality” value (E. brunetti; .005 percent in diet) was 0% and the “Percent Weight Gain” value (E. brunetti; .005 percent in diet) was 89%. The “Average Lesion Score” value (E. brunetti; .005 percent in diet) was 0, the “Percent Reduction Lesion Score” value (E. brunetti; .005 percent in diet) was 100% and the “Percent Mortality” value (E. brunetti; .01 percent in diet) was 0%. For the same compound, the “Percent Weight Gain” value (E. brunetti; .01 percent in diet) was 89%, the “Average Lesion Score” value (E. brunetti; .01 percent in diet) was 0 and the “Percent Reduction Lesion Score” value (E. brunetti; .01 percent in diet) was 100%. The “Percent Mortality” value (E. tenella; [5]) was 35%, the “Percent Weight Gain” value (E. tenella; [5]) was 79% and the “Average Cecal Lesion Score” value (E. tenella; [5]) was 4.0. For the same compound, the “Percent Reduction Lesion Score” value (E. tenella; first experiment, .00165 percent in diet, vs infected controls) was 0%, the “Percent Mortality” value (E. tenella; [6]) was 20% and the “Percent Weight Gain” value (E. tenella; [6]) was 79%. For the same compound, the “Average Cecal Lesion Score” value (E. tenella; [6]) was 3.7, the “Percent Reduction Lesion Score” value (E. tenella; first experiment, .0066 percent in diet, vs infected controls) was 0% and the “Percent Mortality” value (E. tenella; [3]) was 0%. For the same compound, the “Percent Weight Gain” value (E. tenella; [3]) was 87%, the “Average Cecal Lesion Score” value (E. tenella; [3]) was 1.8 and the “Percent Reduction Lesion Score” value (E. tenella; [4]) was 50%. For the same compound, the “Percent Mortality” value (E. tenella; [7]) was 0%, the “Percent Weight Gain” value (E. tenella; [7]) was 96% and the “Average Cecal Lesion Score” value (E. tenella; [7]) was 0. For the same compound, the “Percent Reduction Lesion Score” value (E. tenella; second experiment, .005 percent in diet, vs infected control) was 100%, the “Percent Mortality” value (E. mivati; .0025 percent in diet) was 0% and the “Percent Weight Gain” value (E. mivati; .0025 percent in diet) was 94%. The “Average Intestinal Lesion Score” value (E. mivati; .0025 percent in diet) was 0.27, the “Percent Reduction Lesion Score” value (E. mivati; .0025 percent in diet) was 85% and the “Percent Mortality” value (E. mivati; .005 percent in diet) was 0%. The “Percent Weight Gain” value (E. mivati; .005 percent in diet) was 97%, the “Average Intestinal Lesion Score” value (E. mivati; .005 percent in diet) was 0 and the “Percent Reduction Lesion Score” value (E. mivati; .005 percent in diet) was 100%. For the same compound, the “Percent Mortality” value (E. mivati; .01 percent in diet) was 0%, the “Percent Weight Gain” value (E. mivati; .01 percent in diet) was 98% and the “Average Intestinal Lesion Score” value (E. mivati; .01 percent in diet) was 0. The “Percent Reduction Lesion Score” value (E. mivati; .01 percent in diet) was 100%.
